The bioavailability is dose-corrected exposure relative to a reference, in per cent. A high value points to much systemic uptake. One may read the Vd as the apparent volume that relates the amount in the body to the concentration in plasma or blood. Lower therefore signals little distribution into tissue. Usually clearance stands for the rate of elimination divided by the concentration. Low readings indicate inefficient removal, high ones efficient removal. Usually half-life stands for the time in which the quantity being followed falls by half. Higher therefore signals slow loss.

The source of these data is ChEMBL document CHEMBL1127854, “Bromobenzofuran-based non-peptide antagonists of angiotensin II: GR138950, a potent antihypertensive agent with high oral bioavailability” (J Med Chem, 1994).

Structures are written as SMILES.

One series concerns the target T1, Angiotensin II receptor (Rattus norvegicus, UniProt P29089+P25095+P35351).
T1 sequence (P29089 whole entry): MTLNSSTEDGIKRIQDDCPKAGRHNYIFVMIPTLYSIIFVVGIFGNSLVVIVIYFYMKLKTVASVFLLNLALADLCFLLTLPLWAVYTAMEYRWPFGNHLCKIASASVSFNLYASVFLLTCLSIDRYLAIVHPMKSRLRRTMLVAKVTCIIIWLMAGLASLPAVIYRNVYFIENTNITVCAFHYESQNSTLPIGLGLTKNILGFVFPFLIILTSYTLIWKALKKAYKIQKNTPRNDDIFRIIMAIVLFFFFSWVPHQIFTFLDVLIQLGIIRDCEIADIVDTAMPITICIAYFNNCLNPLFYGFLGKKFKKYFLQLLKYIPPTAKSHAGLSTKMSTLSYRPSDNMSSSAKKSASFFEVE
T1 sequence (P25095 whole entry): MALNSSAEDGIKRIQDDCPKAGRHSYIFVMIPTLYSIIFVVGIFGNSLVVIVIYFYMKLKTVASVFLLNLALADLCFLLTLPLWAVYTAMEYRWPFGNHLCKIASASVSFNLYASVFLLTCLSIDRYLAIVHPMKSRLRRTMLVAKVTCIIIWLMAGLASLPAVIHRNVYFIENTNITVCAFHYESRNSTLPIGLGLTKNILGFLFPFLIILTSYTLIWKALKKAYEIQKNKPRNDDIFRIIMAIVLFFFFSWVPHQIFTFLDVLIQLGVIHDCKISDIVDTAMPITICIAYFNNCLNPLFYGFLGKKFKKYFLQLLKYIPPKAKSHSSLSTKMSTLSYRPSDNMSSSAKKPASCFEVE
T1 sequence (P35351 whole entry): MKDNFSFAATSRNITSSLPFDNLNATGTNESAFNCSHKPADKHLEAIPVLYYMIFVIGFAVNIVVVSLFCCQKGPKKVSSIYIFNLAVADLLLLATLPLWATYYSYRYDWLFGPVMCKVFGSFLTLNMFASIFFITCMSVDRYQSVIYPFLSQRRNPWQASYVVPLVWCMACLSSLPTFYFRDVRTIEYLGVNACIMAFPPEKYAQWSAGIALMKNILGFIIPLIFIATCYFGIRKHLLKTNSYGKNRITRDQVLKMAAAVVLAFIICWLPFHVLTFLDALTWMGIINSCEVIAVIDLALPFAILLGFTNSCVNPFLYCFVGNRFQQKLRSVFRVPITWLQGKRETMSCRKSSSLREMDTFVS
Briefly: Tested for in vitro binding affinity against angiotensin II receptor of rat liver.

Series [1] deals with Rattus norvegicus. Briefly: […] antihypertensive activity in renal hypertensive rat at 0.5 mg/kg after 24 hr of oral administration. The format is functional.
Series [2] has as its system Rattus norvegicus. The series is described as follows: […] antihypertensive activity in renal hypertensive rat at 0.5 mg/kg after 7 hr of oral administration. The class given is functional.
The test system of series [3] is Rattus norvegicus. Briefly: […] antihypertensive activity in renal hypertensive rat at 0.5 mg/kg after 5 hr of oral administration. The format is functional.
A short description of series [4]: Bioavailability in dog (dose 3-10 mg/kg). The format is ADME, organism-based, Canis lupus familiaris. The settings on record: in vivo.
Series [5] in a line: The compound was tested for volume of distribution in dog at dose of 3-10 mgkg. Particulars: in vivo. The format is ADME, organism-based, Canis lupus familiaris.
The nature of series [6]: The compound was tested for plasma clearance in dog at dose of 3-10 mgkg. The class given is ADME, organism-based, Canis lupus familiaris.
Series [7] is described as follows: Half-life in plasma of dog at dose of […]-[…] mgkg. The class given is ADME, organism-based, Canis lupus familiaris.

As to `CNC(=O)c1c(C)nc(C)n1Cc1ccc2oc(-c3ccccc3NS(=O)(=O)C(F)(F)F)c(Br)c2c1`, on Angiotensin II receptor, the “Log Ki” value is -7.5. In addition, the Activity in the series on Rattus norvegicus [1] was -3; in the series on Rattus norvegicus [2], 0; in the series with Rattus norvegicus [3] it was 6.
For `CCCc1nc(Cl)c(C(N)=O)n1Cc1ccc2oc(-c3ccccc3NS(=O)(=O)C(F)(F)F)c(Br)c2c1`, in that order: -8.7, 9, -28 and -19.
As for `CCc1nc(C)c(C(=O)O)n1Cc1ccc2oc(-c3ccccc3-c3nn[nH]n3)c(Br)c2c1`, in series [4], the bioavailability stood at 8%. Besides, in series [5], the volume of distribution (Vd) was 2 L/kg. In addition, in series [6], the clearance was determined as 6 mL/min/kg. Moreover, the half-life in series [7] is 4 h.
Regarding `CCCc1nc(Cl)c(C(=O)NCC)n1Cc1ccc2oc(-c3ccccc3NS(=O)(=O)C(F)(F)F)c(Br)c2c1`, at Angiotensin II receptor, the “Log Ki” value is reported as -9. Besides, the Activity with Rattus norvegicus [1] is on record as -13; with Rattus norvegicus [2], -54; in the series on Rattus norvegicus [3] it was -40.
Turning to `CCCCc1nc(Cl)c(CO)n1Cc1ccc(-c2ccccc2-c2nnn[nH]2)cc1` [LOSARTAN], the Activity in the series with Rattus norvegicus [1] is given as -36; in the series on Rattus norvegicus [2], -41; with Rattus norvegicus [3], -30.
For `CCc1nc(C(C)C)c(C(N)=O)n1Cc1ccc2oc(-c3ccccc3NS(=O)(=O)C(F)(F)F)c(Br)c2c1`, on Angiotensin II receptor, the “Log Ki” value was -8.4. In addition, the Activity in the series with Rattus norvegicus [1] is -13; in the series with Rattus norvegicus [2], -22; in the series on Rattus norvegicus [3] it was -21.
Taken in the same sequence, the figures for `CCc1nc(C2CC2)c(C(N)=O)n1Cc1ccc2oc(-c3ccccc3NS(=O)(=O)C(F)(F)F)cc2c1` were -7, 7, -16 and -18.
For `CCc1nc(Cl)c(C(N)=O)n1Cc1ccc2oc(-c3ccccc3NS(=O)(=O)C(F)(F)F)c(Br)c2c1`, in that order: -8.5, -12, -55 and -57.
For `CCCc1nc(C)c(C(=O)NC)n1Cc1ccc2oc(-c3ccccc3NS(=O)(=O)C(F)(F)F)c(Br)c2c1`, in that order: -9, -12, -50 and -30.
On to `CCc1nc(C)c(C(=O)N(C)C)n1Cc1ccc2oc(-c3ccccc3NS(=O)(=O)C(F)(F)F)c(Br)c2c1`, for which, on Angiotensin II receptor, the “Log Ki” value is given as -8.6. For the same compound, the results for the Activity with Rattus norvegicus [1], with Rattus norvegicus [2] and in the series with Rattus norvegicus [3] were 1, 2 and 1, respectively.
As for `CCc1nc(C)c(C(=O)NC)n1Cc1ccc2oc(-c3ccccc3NS(=O)(=O)C(F)(F)F)c(Br)c2c1`, the “Log Ki” value at Angiotensin II receptor is -8.5. Besides, the Activity is on record as -6 in the series with Rattus norvegicus [1], -54 in the series with Rattus norvegicus [2] and -43 in the series with Rattus norvegicus [3].
Taken in the same sequence, the figures for `CCc1nc(C2CC2)c(C(=O)NC)n1Cc1ccc2oc(-c3ccccc3NS(=O)(=O)C(F)(F)F)c(Br)c2c1` were -9.4, -9, -52 and -60.
Take `CCCCc1nc(Cl)c(C(=O)O)n1Cc1ccc2oc(-c3ccccc3-c3nn[nH]n3)c(Br)c2c1` [ZOLASARTAN]: the bioavailability in series [4] was determined as 9%. The compound also gave a distribution volume (Vd) in series [5] of 1.2 L/kg. This compound also came in with a clearance in series [6] of 6 mL/min/kg. The compound further gave a half-life in series [7] of 2.5 h.
Turning to `CCNC(=O)c1c(Cl)nc(CC)n1Cc1ccc2oc(-c3ccccc3NS(=O)(=O)C(F)(F)F)c(Br)c2c1`, the “Log Ki” value on Angiotensin II receptor was -8.7. The figures for the Activity in the series on Rattus norvegicus [1], in the series with Rattus norvegicus [2] and with Rattus norvegicus [3] were -12, -43 and -37, respectively.
Turning to `CCOC(=O)c1c(C)nc(CC)n1Cc1ccc2oc(-c3ccccc3-c3nn[nH]n3)c(Br)c2c1`, the bioavailability in series [4] was 70%. Besides, the volume of distribution (Vd) in series [5] amounted to 2 L/kg. The compound further returned a clearance in series [6] of about 100 mL/min/kg. Besides, the half-life in series [7] is 0.2 h.
Regarding `CCCc1nc(C)c(C(N)=O)n1Cc1ccc2oc(-c3ccccc3NS(=O)(=O)C(F)(F)F)c(Br)c2c1`, the “Log Ki” value on Angiotensin II receptor is reported as -9.1. Besides, the Activity in the series on Rattus norvegicus [1] is recorded as -8; in the series with Rattus norvegicus [2], -37; in the series on Rattus norvegicus [3], -38.
Taken in the same sequence, the figures for `CCc1nc(CC)n(Cc2ccc3oc(-c4ccccc4NS(=O)(=O)C(F)(F)F)c(Br)c3c2)c1C(N)=O` were -9.1, -17, -38 and -35.
Taken in the same sequence, the figures for `CCNC(=O)c1c(C2CC2)nc(CC)n1Cc1ccc2oc(-c3ccccc3NS(=O)(=O)C(F)(F)F)c(Br)c2c1` were -9.2, -14, -63 and -53.
For `CCc1nc(Cl)c(C(=O)NC)n1Cc1ccc2oc(-c3ccccc3NS(=O)(=O)C(F)(F)F)c(Br)c2c1`, in that order: -8.6, -4, -31 and -30.
Regarding `CCCc1nc(Cl)c(C(=O)NC)n1Cc1ccc2oc(-c3ccccc3NS(=O)(=O)C(F)(F)F)c(Br)c2c1`, the “Log Ki” value at Angiotensin II receptor is -8.9. For the same compound, the Activity in the series with Rattus norvegicus [1] is recorded as -19; in the series on Rattus norvegicus [2], -61; in the series on Rattus norvegicus [3], -67.
For `CCc1nc(C2CC2)c(C(=O)NCC(C)C)n1Cc1ccc2oc(-c3ccccc3NS(=O)(=O)C(F)(F)F)c(Br)c2c1`, in that order: -9.9, -47, -70 and -63.
For `CCc1nc(C)c(C(N)=O)n1Cc1ccc2oc(-c3ccccc3NS(=O)(=O)C(F)(F)F)c(Br)c2c1`, in that order: -8.9, -3, -61 and -40.
For `CCc1c(-c2ccccc2NS(=O)(=O)C(F)(F)F)oc2ccc(Cn3c(CC)nc(C4CC4)c3C(N)=O)cc12`, in that order: -8.8, -2, -42 and -37.
In series [4], `CCCCc1nc(Cl)c(C(=O)NC)n1Cc1ccc2oc(-c3ccccc3-c3nn[nH]n3)c(Br)c2c1` had a bioavailability of 36%. The compound also displayed a distribution volume (Vd) in series [5] of 0.3 L/kg. The clearance in series [6] stood at 11 mL/min/kg. Besides, the half-life in series [7] was 0.5 h.
Turning to `CCNC(=O)c1c(C2CC2)nc(CC)n1Cc1ccc2oc(-c3ccccc3-c3nn[nH]n3)c(Br)c2c1`, the “Log Ki” value on Angiotensin II receptor is on record as -9.4. The Activity in the series on Rattus norvegicus [1] is -1; in the series on Rattus norvegicus [2], -9; in the series with Rattus norvegicus [3], -8.
With `CCNC(=O)c1c(C)nc(CC)n1Cc1ccc2oc(-c3ccccc3NS(=O)(=O)C(F)(F)F)c(Br)c2c1`, the “Log Ki” value at Angiotensin II receptor was -8.9. The values for the Activity in the series on Rattus norvegicus [1], with Rattus norvegicus [2] and in the series with Rattus norvegicus [3] were 4, -33 and -17, respectively.
For `CCc1nc(CC(C)C)c(C(N)=O)n1Cc1ccc2oc(-c3ccccc3NS(=O)(=O)C(F)(F)F)c(Br)c2c1`, in that order: -7.7, -8, -19 and -4.
